Assay results as given in patent US5190946A, “Methods and compounds” (Hoffmann-La Roche Inc., priority 1990, dated 1993).
Where a name gives a salt, the structure may show the parent alone. Read-outs that look alike come from different tables or passages of the source.

Assays:
[1] = test system: P388/ADR cells; assay: inhibition of P388/ADR cells in the presence of a subtoxic concentration of adriamycin (restoring drug sensitivity); assay type: cell-based, murine; settings: Mus musculus
From the text: (§1) Such cancer cells are characterized by the fact that they are resistant to a large variety of anti-tumour agents and thus become extremely and increasingly difficult to treat. […] Such properties can be tested according to the method described in Br. J.

[2] = test system: P388 murine leukemia cells; assay: inhibition of growth rate of P388 cells; assay type: cell-based; settings: Mus musculus
From the text: as §1

[3] = test system: adriamycin-resistant subline (P388/ADR); assay: inhibition of growth rate of adriamycin-resistant subline P388/ADR; assay type: cell-based, murine; settings: P388/ADR cells, compound alone, read-out: B: IC50 for the adriamycin-resistant subline (P388/ADR)
From the text: Such cancer cells are characterized by the fact that they are resistant to a large variety of anti-tumour agents and thus become extremely and increasingly difficult to treat. The compounds of formula I, including those described in British Patent Specification No. 883013, and salts thereof lower this resistance and thus greatly increase the effectiveness of drugs conventionally used in chemotherapy. Such properties can be tested according to the method described in Br. J. […] The Table which follows sets forth for a representative number of compounds of formula I B: the IC50 for the adriamycin-resistant subline (P388/ADR); and […]

[4] = toxicity, LD50 i.p. after administration of a single dose to mice; settings: mouse, in vivo, ip, read-out: T: toxicity, LD50
From the text: For some of these compounds, the Table also contains toxicity data ("T", LD50, mg/kg i.p. after administration of a single dose to mice).

[5] = P388/ADR cells, with adriamycin 0.2 μM, read-out: C: IC50 for P388/ADR cells, measured in the presence of a subtoxic concentration of adriamycin
[6] = P388 cells, compound alone, read-out: A: concentration for inhibiting the growth rate of P388 cells by 50% (IC50)
[7] = P388/ADR, read-out: C: IC50 for P388/ADR cells, measured in the presence of a subtoxic concentration of adriamycin, P388/ADR cells, with adriamycin 0.2 μM
[8] = P388, read-out: A: concentration for inhibiting the growth rate of P388 cells by 50% (IC50), P388 cells, compound alone

| SMILES | IC50 [1, 5] [µM] | IC50 [2, 6] [µM] | IC50 ([3]; Mus musculus, P388/ADR) [µM] | LD50 [4] [mg/kg] | IC50 ([3]; dihydrochloride) [µM] | IC50 [1, 7] [µM] | IC50 [2, 8] [µM] |
| --- | --- | --- | --- | --- | --- | --- | --- |
| CCC(C(=O)OCCN1CCN(CCOC(=O)C(CC)c2ccc(F)cc2)CC1)c1ccc(F)cc1 (centres unmarked) [Compound 1777, N,N'-bis[2-[2-(4-fluorophenyl)-2-ethylacetoxy]ethyl]piperazine dihydrochloride] | 1.2 | 60 | 60 | – | – | – | – |
| CC(C(=O)OCCN1CCN(CCOC(=O)C(C)(c2ccccc2)c2ccccc2)CC1)(c1ccccc1)c1ccccc1 [Compound 1854, N,N'-bis[2-(2,2-diphenyl-2-methylacetoxy)ethyl]piperazine dihydrochloride] | 0.2 | 20 | 45 | – | – | – | – |
| CCC(C(=O)OCCN1CCN(CCOC(=O)C(CC)c2ccccc2Cl)CC1)c1ccccc1Cl (centres unmarked) [Compound 1779, N,N'-bis[2-[2-(2-chlorophenyl)-2-ethylacetoxy]ethyl]piperazine dihydrochloride] | 1 | 60 | 40 | – | – | – | – |
| CCC(C(=O)OCCN1CCN(CCOC(=O)C(CC)c2ccccc2F)CC1)c1ccccc1F (centres unmarked) [Compound 1775, N,N'-bis[2-[2-(2-fluorophenyl)-2-ethylacetoxy]ethyl]piperazine dihydrochloride] | 1.5 | 60 | 60 | – | – | – | – |
| Cc1cccc(C)c1NC(=O)CCN1CCN(CCOC(=O)C(c2ccccc2)c2ccccc2)CC1 [Compound 1853, 3-[1-(2-diphenylacetoxyethyl)-4-piperazino]propion-2,6-dimethylanilide dihydrochloride] | 1.2 | 60 | 60 | – | – | – | – |
| CCC(C(=O)OCCN1CCN(CCOC(=O)C(CC)c2ccccc2)CC1)c1ccccc1.Cl.Cl (centres unmarked) [Compound 480, N,N'-bis[2-(2-phenyl-2-ethylacetoxy)ethyl]piperazine dihydrochloride] | – | – | 60 | 100 to 200 | 45 | – | – |
| CCC(C(=O)OCCN1CCN(CCOC(=O)C(CC)c2ccc(Cl)cc2)CC1)c1ccc(Cl)cc1 (centres unmarked) [Compound 1778, N,N'-bis[2-[2-(4-chlorophenyl)-2-ethylacetoxy]ethyl]piperazine dihydrochloride] | 1 | 30 | 20 | – | – | – | – |
| CCC(C(=O)OCCN1CCN(CCOC(=O)C(CC)c2ccccc2C)CC1)c1ccccc1C.Cl.Cl (centres unmarked) [Compound 1776, N,N'-bis[2-[2-(2-methylphenyl)-2-ethylacetoxy]ethyl]piperazine dihydrochloride] | – | – | 30 | 200 to 400 | – | 0.8 | 30 |
| CCC(C(=O)OCCN1CCN(CCC(=O)Nc2c(C)cccc2C)CC1)c1ccccc1 (centres unmarked) [Compound 1774, 3-[1-(2-Phenyl-2-ethylacetoxy)ethyl-4-piperazino]propion-2,6-dimethylanilide dihydrochloride] | – | – | > 60 | ~200 | – | 1.2 | > 60 |
| CCC(C(=O)OCCN1CCN(CCOC(=O)C(CC)c2ccc(OC)c(OC)c2)CC1)c1ccc(OC)c(OC)c1.Cl.Cl (centres unmarked) [Compound 1835, N,N'-bis[2-[2-(3,4-dimethoxyphenyl)-2-ethylacetoxy]ethyl]piperazine dihydrochloride] | – | – | 120 | ~200 | – | 1.2 | 120 |
| CCCC(C(=O)OCCN1CCN(CCOC(=O)C(CCC)c2ccc(OC)c(OC)c2)CC1)c1ccc(OC)c(OC)c1 (centres unmarked) [Compound 1850, N,N'-bis[2-[2-(3,4-dimethoxyphenyl)-2-propylacetoxy]ethyl]piperazine dihydrochloride] | 0.2 | 20 | 20 | – | – | – | – |
| CCCCC(C(=O)OCCN1CCN(CCOC(=O)C(CCCC)c2ccc(OC)c(OC)c2)CC1)c1ccc(OC)c(OC)c1 (centres unmarked) [Compound 1849, N,N'-bis[2-[2-n-butyl-2-(3,4-dimethoxyphenyl)acetoxy]ethyl]piperazine dihydrochloride] | 0.2 | 12 | 10 | – | – | – | – |
| CCCC(C(=O)OCCN1CCN(CCOC(=O)C(CCC)c2ccccc2)CC1)c1ccccc1 (centres unmarked) [Compound 1838, N,N'-bis[2-(2-n-propyl-2-phenylacetoxy)ethyl]piperazine] | – | – | 20 | 200 to 400 | – | 0.2 | 20 |
| O=C(OCCN1CCN(CCOC(=O)C(c2ccccc2)c2ccccc2)CC1)C(c1ccccc1)c1ccccc1 [Compound 1839, N,N'-bis(2-diphenylacetoxyethyl)piperazine] | – | – | > 60 | 200 to 400 | – | 0.2 | > 60 |
| CCC(C(=O)OCCCN1CCN(CCCOC(=O)C(CC)c2ccccc2)CC1)c1ccccc1 (centres unmarked) [Compound 1843, N,N'-bis[3-(2-phenyl-2-ethylacetoxy)propyl]piperazine] | 0.45 | 7 | 8 | – | – | – | – |
